Test results published in patent US20120077673A1, “Fungicidal Compositions and Methods of Use” (priority 2010, published 2012).

Experiments:
Assay type in all cases: in vivo
Settings in all cases: Triadimenol 30 GA/100 Kg
Pythium [1] = test: Corn field trial, Pythium-infected seeds, seed treatment, soil not inoculated (Example 1); parameters: Density: unit not given here
Excerpt: Unlike other experiments disclosed herein, the soil for the experiment of EXAMPLE 1 was not inoculated with Pythium. Uninfected untreated, and Pythium-infected untreated seeds served as controls. Triadimenol, 15% w/v, is a systemic broad-spectrum fungicide used for cereal seed treatment, but has no activity against Pythium spp. Metalaxyl, 28.35% w/v, provides systemic protection for the seed, roots, and emerging plants against Pythium, systemic downy mildew, and Phytophthora. For corn, the industry standard dosage of metalaxyl is 2 grams of active ingredient per 100 kilograms of seed (2 GA/100 Kg). Saponin, 49.65% v/v extract of Chenopodium quinoa saponins, contained approximately equimolar amounts of triterpene bidesmosidic glycosides of oleanolic acid, hederagenin, and phytolaccagenic acid. […] In TABLE 1, “Vigor” represents a subjective measure of plant health and is based on uniformity, consistent plant mass, and consistent plant spacing, with lower scores being more favorable than higher scores. The data of TABLE 1 are shown graphically in FIGS. 1A and 1B. As shown by TABLE 1 and FIGS. 1A and 1B, the count and the density increased—over time—for all treatment conditions. The relative density, however, decreased over time for the […] and metalaxyl (2 GA/100 kg) categories. The relative density remained the same for the untreated/uninfected category because it provided the reference point (i.e., the relative densities were calculated with reference to the untreated/uninfected category).

Pythium [2] = test: Cotton field trial, Pythium-infected seeds, seed treatment, control or Pythium-inoculated soil (Example 2)
Excerpt: The seeds were planted in a field, either in soil that had been inoculated with Pythium (Soil Inoc. with Pythium), or in soil that had not been inoculated with Pythium (Ctrl.), then allowed to grow. Concentrations and compositions of triadimenol, metalaxyl, and saponin are the same as given in Example 1. For cotton, the industry standard dosage of metalaxyl is 15.5 grams of active ingredient per 100 kilograms of seed (15.5 GA/100 Kg). […] The data of TABLE 2 are shown graphically in FIG. 2. The relative densities for the data of TABLE 2 and FIG. 2 were calculated with reference to the 15.5 GA/100 Kg metalaxyl category. As shown by TABLE 2 and FIG. 2, inoculation of the soil with Pythium was correlated with a general decrease in cotton seedling count and density (compare Ctrl. versus Inoc.).

Pythium [3] = test: Cucumber field trial, Pythium-infected seeds, seed treatment, control or Pythium-inoculated soil (Example 3); parameters: Density: unit not given here
Excerpt: The seeds were planted in a field, either in soil that had been inoculated with Pythium (Soil Inoc. with Pythium), or in soil that had not been inoculated with Pythium (Ctrl.), then allowed to grow. Concentrations and compositions of triadimenol, metalaxyl, and saponin are the same as given in Example 1. For cucumber, the industry standard dosage of metalaxyl is 15.5 grams of active ingredient per 100 kilograms of seed (15.5 GA/100 Kg). […] The data of TABLE 3 are shown graphically in FIG. 3. The relative densities for the data of TABLE 3 and FIG. 3 were calculated with reference to the 31 GA/100 Kg metalaxyl category. As shown by TABLE 3 and FIG. 3, inoculation of the soil with Pythium was correlated with a general decrease in cucumber seedling count, density, and relative density (compare Ctrl. versus Inoc.).

Pythium [4] = test: Corn hybrids greenhouse trial, Pythium-infected seeds, seed treatment (Example 4)
Excerpt: Concentrations and compositions of triadimenol, metalaxyl, and saponin are the same as given in Example 1. The data of TABLE 4 are shown graphically in FIGS. 4A and 4B. As shown by TABLE 4 and FIGS. 4A and 4B, pre-treatment of both varieties of corn seeds with 1 GA/100 Kg metalaxyl and 0.6 GA/100 Kg yielded counts similar to those achieved from pre-treatment of seeds with either 2 GA/100 Kg metalaxyl (the industry standard dose for corn) or 7.5 GA/100 Kg metalaxyl.

[5] = 34 DAA, Soil Inoc. with Pythium
[6] = 46 DAA, Soil Inoc. with Pythium
[7] = 18 DAA, Soil Inoc. with Pythium
[8] = 33 DAA, Soil Inoc. with Pythium

CC(C)(C)C(O)C(Oc1ccc(Cl)cc1)n1cncn1 (stereo not shown) [Triadimenol]
Count (Pythium [1]; 30 DAA): 21
Density (Pythium [1]; 30 DAA): 25.9
Relative Density (Pythium [1]; 30 DAA): 69.2
Count (Pythium [1]; 46 DAA): 60
Density (Pythium [1]; 46 DAA): 74.4
Relative Density (Pythium [1]; 46 DAA): 96.4
Vigor (Pythium [1]; 46 DAA, subjective score, lower more favorable): 4.50
Count (Pythium [2]; 34 DAA, Ctrl. soil): 39.5
Density (Pythium [2]; 34 DAA, Ctrl. soil): 79
Relative Density (Pythium [2]; 34 DAA, Ctrl. soil): 106.8
Count (Pythium [2]; [5]): 18.3
Density (Pythium [2]; [5]): 36.5
Relative Density (Pythium [2]; [5]): 73
Count (Pythium [2]; 46 DAA, Ctrl. soil): 40.3
Density (Pythium [2]; 46 DAA, Ctrl. soil): 80.5
Relative Density (Pythium [2]; 46 DAA, Ctrl. soil): 107.3
Count (Pythium [2]; [6]): 17.5
Density (Pythium [2]; [6]): 35
Relative Density (Pythium [2]; [6]): 71.4
Count (Pythium [3]; 18 DAA, Ctrl. soil): 28
Density (Pythium [3]; 18 DAA, Ctrl. soil): 56
Relative Density (Pythium [3]; 18 DAA, Ctrl. soil): 80
Count (Pythium [3]; [7]): 10
Density (Pythium [3]; [7]): 20
Relative Density (Pythium [3]; [7]): 34.5
Count (Pythium [3]; 33 DAA, Ctrl. soil): 28.3
Density (Pythium [3]; 33 DAA, Ctrl. soil): 56.5
Relative Density (Pythium [3]; 33 DAA, Ctrl. soil): 83.1
Count (Pythium [3]; [8]): 4.3
Density (Pythium [3]; [8]): 8.5
Relative Density (Pythium [3]; [8]): 16.2
Count, Hybrid A (Pythium [4]; Day 2): 62
Count, Hybrid B (Pythium [4]; Day 2): 24
Count, Hybrid A (Pythium [4]; Day 7): 72
Count, Hybrid B (Pythium [4]; Day 7): 40
Count, Hybrid A (Pythium [4]; Day 14): 74
Count, Hybrid B (Pythium [4]; Day 14): 40
